Results reported in US10392368B2, “Pyrazolo and triazolo bicyclic compounds as JAK kinase inhibitors” (THERAVANCE BIOPHARMA R&D IP, LLC, priority 2017, dated 2019).
pKi: −log10 of the molar value. Like-named read-outs stand apart in the source and are kept apart here.

Columns and labels:
[1] = tested on: IL-2 stimulated pSTAT5 in Tall-1 T cells; test: Cellular JAK3 potency assay: inhibition of IL-2 stimulated pSTAT5 in Tall-1 T cells; format: cell-based, human; conditions: for IC50: Homo sapiens, read-out: Tall-1 (pIC50) (converted)
Description: The potency of test compounds for inhibition of interleukin-2 (IL-2) stimulated STAT5 phosphorylation was measured in the Tall-1 human T cell line (DSMZ) using AlphaLisa. Because IL-2 signals through JAK3, this assay provides a measure of JAK3 cellular potency.
Compounds were serially diluted in DMSO and dispensed acoustically to empty wells. Assay media (phenol red-free DMEM (Life Technologies) supplemented with 10% FBS (ATCC)) was dispensed (4 μL/well) and plates shaken at 900 rpm for 10 mins. Cells were seeded at 45,000 cells/well in assay media (4 μL/well), and incubated at 37° C., 5% CO2 for 1 hour, followed by the addition of IL-2 (R&D Systems; final concentration 300 ng/ml) in pre-warmed assay media (4 μL) for 30 minutes. After cytokine stimulation, cells were lysed with 6 ul of 3× AlphaLisa Lysis Buffer (PerkinElmer) containing 1× PhosStop and Complete tablets (Roche). The lysate was shaken at 900 rpm for 10 minutes at room temperature (RT). Phosphorylated STAT5 was measured via the pSTAT5 AlphaLisa kit (PerkinElmer). Freshly prepared acceptor bead mixture was dispensed onto lysate (5 μL) under green filtered <100 lux light. Plates were shaken at 900 rpm for 2 mins, briefly spun down, and incubated for 2 hrs at RT in the dark. Donor beads were dispensed (5 μL) under green filtered <100 lux light. Plates were shaken at 900 rpm for 2 minutes, briefly spun down, and incubated overnight at RT in the dark.
To determine the inhibitory potency of test compounds in response to IL-2, the average emission intensity of beads bound to pSTAT5 was measured in a human T cell line. IC50 values were determined from analysis of the inhibition curves of signal intensity versus compound concentration. Data are expressed as pIC50 (negative decadic logarithm IC50) values (mean±standard deviation).

[2] = biological target: T1, JAK3 (Homo sapiens, UniProt P52333); test: Biochemical JAK3 kinase assay (LanthaScreen); parameters: GST; purchased Life Technologies; conditions: for Ki: read-out: JAK 3 (pKi) (converted)
T1 sequence (P52333 1-1124): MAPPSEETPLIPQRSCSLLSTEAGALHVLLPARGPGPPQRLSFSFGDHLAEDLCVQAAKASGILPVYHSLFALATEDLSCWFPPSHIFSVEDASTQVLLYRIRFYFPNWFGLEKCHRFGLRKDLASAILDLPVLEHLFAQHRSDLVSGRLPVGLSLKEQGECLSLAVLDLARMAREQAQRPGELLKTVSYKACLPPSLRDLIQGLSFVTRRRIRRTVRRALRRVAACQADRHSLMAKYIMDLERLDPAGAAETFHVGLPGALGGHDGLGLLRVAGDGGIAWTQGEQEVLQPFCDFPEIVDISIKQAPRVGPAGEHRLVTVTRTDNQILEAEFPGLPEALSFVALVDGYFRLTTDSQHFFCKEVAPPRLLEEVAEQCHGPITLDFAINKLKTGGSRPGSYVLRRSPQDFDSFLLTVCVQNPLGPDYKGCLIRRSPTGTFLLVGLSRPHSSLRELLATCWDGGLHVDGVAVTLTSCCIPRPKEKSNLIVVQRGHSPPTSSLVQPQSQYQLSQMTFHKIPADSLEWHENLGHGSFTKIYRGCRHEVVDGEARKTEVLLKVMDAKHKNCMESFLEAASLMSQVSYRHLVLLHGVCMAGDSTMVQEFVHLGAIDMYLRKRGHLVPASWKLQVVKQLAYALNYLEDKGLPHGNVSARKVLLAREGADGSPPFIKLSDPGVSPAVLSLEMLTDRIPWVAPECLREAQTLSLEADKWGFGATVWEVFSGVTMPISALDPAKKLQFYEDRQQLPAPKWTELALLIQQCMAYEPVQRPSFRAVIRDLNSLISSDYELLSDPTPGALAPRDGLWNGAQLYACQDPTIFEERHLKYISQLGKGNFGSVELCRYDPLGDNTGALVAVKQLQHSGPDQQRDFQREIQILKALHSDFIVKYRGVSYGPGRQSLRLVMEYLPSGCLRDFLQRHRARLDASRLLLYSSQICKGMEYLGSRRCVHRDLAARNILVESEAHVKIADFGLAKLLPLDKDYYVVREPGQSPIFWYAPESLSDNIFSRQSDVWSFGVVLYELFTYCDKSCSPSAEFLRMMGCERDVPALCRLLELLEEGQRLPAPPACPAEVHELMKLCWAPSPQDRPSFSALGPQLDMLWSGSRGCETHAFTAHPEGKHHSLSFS
Description: (§1) A panel of four LanthaScreen JAK biochemical assays (JAK1, 2, 3 and Tyk2) were carried in a common kinase reaction buffer (50 mM HEPES, pH 7.5, 0.01% Brij-35, 10 mM MgCl2, and 1 mM EGTA). Recombinant GST-tagged JAK enzymes and a GFP-tagged STAT1 peptide substrate were obtained from Life Technologies.
(§2) Serially or discretely diluted compounds were pre-incubated with each of the four JAK enzymes and the substrate in white 384-well microplates (Corning) at ambient temperature for 1 h. ATP was subsequently added to initiate the kinase reactions in 10 μL total volume, with 1% DMSO. […] Kinase reactions were allowed to proceed for 1 hour at ambient temperature before a 10 μL preparation of EDTA (10 mM final concentration) and Tb-anti-pSTAT1 (pTyr701) antibody (Life Technologies, 2 nM final concentration) in TR-FRET dilution buffer (Life Technologies) was added. The plates were allowed to incubate at ambient temperature for 1 h before being read on the EnVision reader (Perkin Elmer). Emission ratio signals (520 nm/495 nm) were recorded and utilized to calculate the percent inhibition values based on DMSO and background controls.
(§3) For dose-response analysis, percent inhibition data were plotted vs. compound concentrations, and IC50 values were determined from a 4-parameter robust fit model with the Prism software (GraphPad Software). Results were expressed as pIC50 (negative logarithm of IC50) and subsequently converted to pKi (negative logarithm of dissociation constant, Ki) using the Cheng-Prusoff equation.

[3] = biological target: T2, JAK1 (Homo sapiens, UniProt P23458); test: Biochemical JAK1 kinase assay (LanthaScreen); conditions: for Ki: read-out: JAK 1 (pKi) (converted)
T2 construct: GST; purchased Life Technologies
Description: as §1, §2, §3

[4] = IL-2 stimulated pSTAT5, Tall-1 T cells
[5] = selectivity JAK3 over JAK1, difference of pKi
[6] = TALL-1, IL-2 stimulated pSTAT5, Tall-1 T cells
[7] = TALL-1, IL-2 stimulated pSTAT5 in Tall-1 T cells
[8] = selectivity: difference of pKi JAK3 and pKi JAK1

T2 sequence (P23458 whole entry): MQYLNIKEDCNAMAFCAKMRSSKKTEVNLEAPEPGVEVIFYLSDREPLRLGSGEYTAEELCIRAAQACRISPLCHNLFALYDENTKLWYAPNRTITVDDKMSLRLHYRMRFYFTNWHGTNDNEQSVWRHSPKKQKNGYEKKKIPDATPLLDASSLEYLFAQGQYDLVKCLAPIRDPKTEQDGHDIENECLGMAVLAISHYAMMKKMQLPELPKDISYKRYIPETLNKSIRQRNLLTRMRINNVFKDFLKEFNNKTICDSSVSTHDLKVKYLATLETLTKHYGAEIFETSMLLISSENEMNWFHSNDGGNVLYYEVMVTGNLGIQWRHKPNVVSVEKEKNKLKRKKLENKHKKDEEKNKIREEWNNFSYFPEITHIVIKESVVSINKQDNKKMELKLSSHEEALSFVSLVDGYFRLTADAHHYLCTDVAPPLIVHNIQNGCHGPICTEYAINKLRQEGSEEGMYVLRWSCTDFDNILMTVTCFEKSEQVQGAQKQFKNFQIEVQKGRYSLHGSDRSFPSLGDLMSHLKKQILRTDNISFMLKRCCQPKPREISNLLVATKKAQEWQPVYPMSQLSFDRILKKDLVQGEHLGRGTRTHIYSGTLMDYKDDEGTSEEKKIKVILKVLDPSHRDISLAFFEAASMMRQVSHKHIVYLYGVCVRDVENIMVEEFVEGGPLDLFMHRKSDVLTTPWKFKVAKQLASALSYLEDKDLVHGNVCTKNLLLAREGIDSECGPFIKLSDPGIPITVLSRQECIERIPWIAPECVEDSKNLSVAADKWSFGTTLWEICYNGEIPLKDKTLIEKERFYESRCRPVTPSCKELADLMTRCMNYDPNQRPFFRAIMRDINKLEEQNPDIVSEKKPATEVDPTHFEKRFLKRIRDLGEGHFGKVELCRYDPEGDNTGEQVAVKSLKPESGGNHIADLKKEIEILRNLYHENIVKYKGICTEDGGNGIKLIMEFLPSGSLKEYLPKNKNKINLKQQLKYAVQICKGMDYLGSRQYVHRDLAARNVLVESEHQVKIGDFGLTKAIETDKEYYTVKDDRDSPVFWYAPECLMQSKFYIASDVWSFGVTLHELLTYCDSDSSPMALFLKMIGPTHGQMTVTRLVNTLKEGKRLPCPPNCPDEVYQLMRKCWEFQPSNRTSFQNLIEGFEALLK

SMILES | Tall-1 (pIC50) [1, 4] | JAK 3 (pKi) [2] | JAK3 (pKi)-JAK1 (pKi) [2, 5] | JAK 1 (pKi) [3] | IC50 [1, 6] | Ki [2] | Ki [3] | IC50 [1, 7] | pKi ([2]; JAK 3 (pKi)) | JAK3 (pKi)-JAK1 (pKi) [2, 8] | Tall-1 (pIC50) ([1]; IL-2 stimulated pSTAT5 in Tall-1 T cells)
CN(C)C/C=C/C(=O)N1CC2(CC(Oc3cc(-c4ccc(O)c(Cl)c4)cc4[nH]ncc34)C2)C1 [Compound 15-4] | B (a pIC50 value between 6.7 (included) and 7.5 (IC50 between 200 nM and 32 nM)) | A (a pKi value≥10 (Ki≤0.1 nM)) | A (a value of 3 or above) | E (a pKi value of 7 or below (Ki of 100 nM or above)) | – | – | – | – | – | – | –
C=CC(=O)N1CCCC(Oc2cc(-c3ccc(O)cc3)nc3[nH]ncc23)C1 (centres unmarked) [Compound 8-6] | B (a pIC50 value between 6.7 (included) and 7.5 (IC50 between 200 nM and 32 nM)) | B (a pKi value between 9 and 10 (Ki between 1 nM and 0.1 nM)) | A (a value of 3 or above) | E (a pKi value of 7 or below (Ki of 100 nM or above)) | – | – | – | – | – | – | –
C=CC(=O)N1CC(COc2cc(-c3ccc(O)cc3)cc3[nH]nc(C)c23)C1 [Compound 18-5] | – | – | B (a value of 2.3 to 3) | – | < 31.6 nM | 0.1 to 1 nM | 10 to 100 nM | – | – | – | –
C=CC(=O)N1C[C@H](C(=O)Nc2cc(-c3ccc(O)cc3)cc3[nH]ncc23)OC(C)(C)C1 [Compound 12-62] | – | – | A (a value of 3 or above) | – | 31.6 to 200 nM | < 0.1 nM | > 100 nM | – | – | – | –
C#CC(=O)N1CC[C@H](Oc2cc(-c3ccc(O)cc3)cc3[nH]ncc23)C1 [Compound 17, (S)-1-(3-((6-(4-hydroxyphenyl)-1H-indazol-4-yl)oxy)pyrrolidin-1-yl)prop-2-yn-1-one] | – | – | – | – | – | – | > 100 nM | 200 to 1000 nM | 9.00 to 10.00 | B (a value of 2.3 to 3) | –
CN(C)C/C=C/C(=O)N1CCC(C)(Nc2cc(-c3ccc(O)cc3)cc3[nH]ncc23)CC1 [Compound 7-1] | C (a pIC50 value between 6 and 6.7 (IC50 between 1 μM and 200 nM)) | B (a pKi value between 9 and 10 (Ki between 1 nM and 0.1 nM)) | A (a value of 3 or above) | E (a pKi value of 7 or below (Ki of 100 nM or above)) | – | – | – | – | – | – | –
CN(C)C/C=C/C(=O)N1CC2(CC(Oc3nc(-c4ccc(O)cc4)cc4[nH]ncc34)C2)C1 [Compound 15-6] | C (a pIC50 value between 6 and 6.7 (IC50 between 1 μM and 200 nM)) | A (a pKi value≥10 (Ki≤0.1 nM)) | B (a value of 2.3 to 3) | D (a pKi value between 7 and 8 (Ki between 100 nM and 10 nM)) | – | – | – | – | – | – | –
CN(C)CC=CC(=O)N1C2CCC1CC(Oc1cc(-c3ccc(O)c(F)c3)cc3[nH]ncc13)C2 (centres unmarked) [Compound 9-5] | C (a pIC50 value between 6 and 6.7 (IC50 between 1 μM and 200 nM)) | B (a pKi value between 9 and 10 (Ki between 1 nM and 0.1 nM)) | C (a value of 1.8 to 2.3) | D (a pKi value between 7 and 8 (Ki between 100 nM and 10 nM)) | – | – | – | – | – | – | –
O=C(/C=C/CN1CCC1)N1CC(COc2cc(-c3ccc(O)cc3)cc3[nH]ncc23)C1 [Compound 3-123] | – | – | – | – | – | < 0.1 nM | > 100 nM | 200 to 1000 nM | – | A (a value of 3 or above) | –
COC[C@H]1CCN(C/C=C/C(=O)N2CC(COc3cc(-c4ccc(O)cc4)cc4[nH]ncc34)C2)C1 [Compound 3-134] | – | – | – | – | – | 0.1 to 1 nM | > 100 nM | 31.6 to 200 nM | – | A (a value of 3 or above) | –
C=CC(=O)N1CCC[C@H](Sc2cc(-c3ccc(O)cc3)cc3[nH]ncc23)C1 [Compound 12-6] | – | – | B (a value of 2.3 to 3) | – | 31.6 to 200 nM | 0.1 to 1 nM | 10 to 100 nM | – | – | – | –
C=CC(=O)N1CC(COc2cc(-c3ccc(O)c(Cl)c3)cc3[nH]nc(C)c23)C1 [Compound 18-6] | – | – | B (a value of 2.3 to 3) | – | < 31.6 nM | 0.1 to 1 nM | 10 to 100 nM | – | – | – | –
CN(C)C/C=C/C(=O)N1CCC(Cc2cc(-c3ccc(O)cc3)cc3[nH]ncc23)CC1 [Compound 12-14] | – | – | C (a value of 1.8 to 2.3) | – | 200 to 1000 nM | 0.1 to 1 nM | > 100 nM | – | – | – | –
CN(C)C/C=C/C(=O)N1CC(C)(COc2cc(-c3ccc(O)c(Cl)c3)cc3[nH]ncc23)C1 [Compound 3-9] | – | – | – | – | – | 0.1 to 1 nM | > 100 nM | 31.6 to 200 nM | – | B (a value of 2.3 to 3) | –
C=CC(=O)N1CC(COc2cc(-c3ccc(O)cc3)cc3[nH]nc(N(C)C)c23)C1 [Compound 18-11] | – | – | A (a value of 3 or above) | – | 200 to 1000 nM | 0.1 to 1 nM | > 100 nM | – | – | – | –
C=CC(=O)N1CC(F)(COc2nc(-c3ccc(O)cc3)cc3[nH]ncc23)C1 [Compound 3-90] | – | – | – | – | – | < 0.1 nM | 10 to 100 nM | < 31.6 nM | – | B (a value of 2.3 to 3) | –
C=CC(=O)N1CC(CC)(COc2cc(-c3ccc(O)c(Cl)c3)cc3[nH]ncc23)C1 [Compound 3-16] | – | A (a pKi value≥10 (Ki≤0.1 nM)) | – | E (a pKi value of 7 or below (Ki of 100 nM or above)) | – | – | – | – | – | A (a value of 3 or above) | B (a pIC50 value between 6.7 (included) and 7.5 (IC50 between 200 nM and 32 nM))
C=CC(=O)N1CC[C@H](Oc2cc(-c3ccc(O)c(Cl)c3)nc3[nH]nc(C)c23)C1 [Compound 1-32] | – | – | – | – | – | 0.1 to 1 nM | > 100 nM | 200 to 1000 nM | – | A (a value of 3 or above) | –
CN(C)C/C=C/C(=O)N1CCC(C)(Oc2cc(-c3ccc(O)cc3)cc3[nH]ncc23)CC1 [Compound 6-9] | – | – | A (a value of 3 or above) | – | 31.6 to 200 nM | – | – | – | – | – | –
